molecular target: T1, LCK (Homo sapiens, UniProt P06239); assay: LCK-Homogeneous Time Resolved Fluorescent (HTRF) Kinase Assay; type: biochemical; settings: not given
T1 construct: LCK KD GST (225-509); GST
Method: LCK-Homogeneous Time Resolved Fluorescent (HTRF) Kinase Assay:
The LCK HTRF assay begins with LCK in the presence of ATP phosphorylating the biotinylated peptide Gastrin. The reaction incubates for 90 min. To quench the assay detection reagents are added which both stop the reaction by diluting out the enzyme and chelating the metals due to the presence of EDTA. Once the detection reagents are added the assay incubates for 30 min to allow for equilibration of the detection reagents.
Buffer conditions are as follows: 50 mM HEPES pH 7.5, 50 mM NaCl, 20 mM MgCl, 5 mM MnCl, 2 mM DTT, 0.05% BSA.
The assay is quenched and stopped with 160 μL of detection reagent. Detection reagents are as follows: Buffer made of 50 mM Tris, pH 7.5, 100 mM NaCl, 3 mM EDTA, 0.05% BSA, 0.1% Tween20.
The assay plate is read in either a Discovery or a RubyStar.

T1 sequence (P06239 225-509): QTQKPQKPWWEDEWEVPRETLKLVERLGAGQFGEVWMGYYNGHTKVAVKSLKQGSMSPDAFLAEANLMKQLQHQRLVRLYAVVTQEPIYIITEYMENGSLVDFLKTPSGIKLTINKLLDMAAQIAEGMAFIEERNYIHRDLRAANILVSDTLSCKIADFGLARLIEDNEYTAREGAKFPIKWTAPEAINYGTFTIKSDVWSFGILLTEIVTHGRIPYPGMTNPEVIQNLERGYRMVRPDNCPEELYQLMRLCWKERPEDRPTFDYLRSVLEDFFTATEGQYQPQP

IC50, < 1000 nM:
COc1cc(Nc2ncc3c(=O)n(-c4c(C)cccc4C)c4nc5ccccc5n4c3n2)cc(OC)c1OCCCN1CCN(C)CC1 [No. 9, 2-((3,5-bis(methyloxy)-4-((3-(4-methyl-1-piperazinyl)propyl)oxy)phenyl)amino)-6-(2,6-dimethylphenyl)pyrimido[5′,4′:5,6]pyrimido[1,2-a]-benzimidazol-5(6H)-one]
COc1cc(Nc2ncc3c(=O)n(-c4c(C)cccc4C)c4nc5ccccc5n4c3n2)ccc1OCCN1CCN(C)CC1 [No. 10, 6-(2,6-dimethylphenyl)-2-((3-(methyloxy)-4-((2-(4-methyl-1-piperazinyl)ethyl)oxy)phenyl)amino)-pyrimido[5′,4′:5,6]pyrimido[1,2-a]benzimidazol-5(6H)-one]
COc1cc(Nc2ncc3c(=O)n(-c4c(C)cccc4C)c4nc5ccccc5n4c3n2)ccc1N1CCN(C)CC1 [No. 19, 6-(2,6-dimethylphenyl)-2-((3-(methyloxy)-4-(4-methyl-1-piperazinyl)phenyl)amino)-pyrimido[5′,4′:5,6]pyrimido[1,2-a]benzimidazol-5(6H)-one]
COc1cc(Nc2ncc3c(=O)n(-c4c(C)cccc4C)c4nc5ccccc5n4c3n2)ccc1OCCCN1CCN(C)CC1 [No. 20, 6-(2,6-dimethylphenyl)-2-((3-(methyloxy)-4-((3-(4-methyl-1-piperazinyl)propyl)oxy)phenyl)amino)-pyrimido[5′,4′:5,6]pyrimido[1,2-a]benzimidazol-5(6H)-one]

same assay, conditions: read-out: activity in the LCK-HTRF Kinase Assay

IC50, < 1000 nM:
Cc1cccc(C)c1-n1c(=O)c2cnc(Nc3ccc(N4CCNCC4)cc3)nc2n2c3ccccc3nc12 [No. 2, 6-(2,6-dimethylphenyl)-2-((4-(1-piperazinyl)phenyl)-amino)pyrimido[5′,4′:5,6]pyrimido[1,2-a]-benzimidazol-5(6H)-one]
Cc1cccc(C)c1-n1c(=O)c2cnc(Nc3ccc(N4CCN(C(=O)OC(C)(C)C)CC4)cc3)nc2n2c3ccccc3nc12 [No. 3, 1,1-dimethylethyl 4-(4-((6-(2,6-dimethylphenyl)-5-oxo-5,6-dihydropyrimido[5′,4′:5,6]pyrimido[1,2-a]-benzimidazol-2-yl)amino)phenyl)-1-piperazinecarboxylate]
COc1cc(Nc2ncc3c(=O)n(-c4c(C)cccc4C)c4nc5ccccc5n4c3n2)ccc1OCCC1CCN(C)CC1 [No. 4, 6-(2,6-dimethylphenyl)-2-((3-(methyloxy)-4-((2-(1-methyl-4-piperidinyl)ethyl)oxy)phenyl)amino)-pyrimido[5′,4′:5,6]pyrimido[1,2-a]benzimidazol-5(6H)-one]
Cc1cccc(C)c1-n1c(=O)c2cnc(Nc3ccc(OCCCN4CCCCC4)c(F)c3)nc2n2c3ccccc3nc12 [No. 5, 6-(2,6-dimethylphenyl)-2-((3-fluoro-4-((3-(1-piperidinyl)propyl)oxy)phenyl)amino)-pyrimido[5′,4′:5,6]pyrimido[1,2-a]benzimidazol-5(6H)-one]
CCN(CC)CCCOc1ccc(Nc2ncc3c(=O)n(-c4c(C)cccc4C)c4nc5ccccc5n4c3n2)cc1F [No. 6, 2-((4-((3-(diethylamino)propyl)oxy)-3-fluorophenyl)-amino)-6-(2,6-dimethylphenyl)pyrimido[5′,4′:5,6]-pyrimido[1,2-a]benzimidazol-5(6H)-one]
Cc1cccc(C)c1-n1c(=O)c2cnc(Nc3ccc(OCCCN4CCN(C)CC4)c(F)c3)nc2n2c3ccccc3nc12 [No. 7, 6-(2,6-dimethylphenyl)-2-((3-fluoro-4-((3-(4-methyl-1-piperazinyl)propyl)oxy)phenyl)amino)-pyrimido[5′,4′:5,6]pyrimido[1,2-a]benzimidazol-5(6H)-one]
Cc1cccc(C)c1-n1c(=O)c2cnc(Nc3ccc(OCCN(C)C)cc3)nc2n2c3ccccc3nc12 [No. 8, 2-((4-((2-(dimethylamino)ethyl)oxy)phenyl)amino)-6-(2,6-dimethylphenyl)pyrimido[5′,4′:5,6]pyrimido[1,2-a]benzimidazol-5(6H)-one]
COc1cc(Nc2ncc3c(=O)n(-c4c(C)cccc4C)c4nc5ccccc5n4c3n2)cc(OCCN2CCN(C)CC2)c1OC [No. 11, 2-((3,4-bis(methyloxy)-5-((2-(4-methyl-1-piperazinyl)ethyl)oxy)phenyl)amino)-6-(2,6-dimethylphenyl)pyrimido[5′,4′:5,6]pyrimido[1,2-a]-benzimidazol-5(6H)-one]
COc1cc(Nc2ncc3c(=O)n(-c4c(C)cccc4C)c4nc5ccccc5n4c3n2)ccc1OCC1CCN(C)CC1 [No. 12, 6-(2,6-dimethylphenyl)-2-((3-(methyloxy)-4-(((1-methyl-4-piperidinyl)methyl)oxy)phenyl)amino)-pyrimido[5′,4′:5,6]pyrimido[1,2-a]benzimidazol-5(6H)-one]
Cc1cc(N2CCN(C)CC2)ccc1Nc1ncc2c(=O)n(-c3c(C)cccc3C)c3nc4ccccc4n3c2n1 [No. 13, 6-(2,6-dimethylphenyl)-2-((2-methyl-4-(4-methyl-1-piperazinyl)phenyl)amino)pyrimido[5′,4′:5,6]-pyrimido[1,2-a]benzimidazol-5(6H)-one]
Cc1cccc(C)c1-n1c(=O)c2cnc(Nc3ccc(OC[C@@H]4CCCN4)cc3)nc2n2c3ccccc3nc12 [No. 14, 6-(2,6-dimethylphenyl)-2-((4-(((2S)-2-pyrrolidinylmethyl)oxy)phenyl)amino)-pyrimido[5′,4′:5,6]pyrimido[1,2-a]benzimidazol-5(6H)-one]
Cc1cc(OCCCN2CCCCC2)ccc1Nc1ncc2c(=O)n(-c3c(C)cccc3C)c3nc4ccccc4n3c2n1 [No. 15, 6-(2,6-dimethylphenyl)-2-((2-methyl-4-((3-(1-piperidinyl)propyl)oxy)phenyl)amino)-pyrimido[5′,4′:5,6]pyrimido[1,2-a]benzimidazol-5(6H)-one]
Cc1cc(OCCCN2CCN(C)CC2)ccc1Nc1ncc2c(=O)n(-c3c(C)cccc3C)c3nc4ccccc4n3c2n1 [No. 16, 6-(2,6-dimethylphenyl)-2-((2-methyl-4-((3-(4-methyl-1-piperazinyl)propyl)oxy)phenyl)amino)-pyrimido[5′,4′:5,6]pyrimido[1,2-a]benzimidazol-5(6H)-one]
COc1cc(Nc2ncc3c(=O)n(-c4c(C)cccc4C)c4nc5ccccc5n4c3n2)cc(OC)c1OC [No. 18, 6-(2,6-dimethylphenyl)-2-((3,4,5-tris(methyloxy)-phenyl)amino)pyrimido[5′,4′:5,6]pyrimido[1,2-a]-benzimidazol-5(6H)-one]
COc1cc(Nc2ncc3c(=O)n(-c4c(C)cccc4C)c4nc5ccccc5n4c3n2)cc(OCCCN2CCN(C)CC2)c1OC [No. 21, 2-((3,4-bis(methyloxy)-5-((3-(4-methyl-1-piperazinyl)propyl)oxy)phenyl)amino)-6-(2,6-dimethylphenyl)pyrimido[5′,4′:5,6]pyrimido[1,2-a]-benzimidazol-5(6H)-one]

Source: patent US20050070554A1, “Substituted heterocyclic compounds and methods of use” (Amgen Inc., priority 2003, published 2005)
